These are literature values, as cited in patent US10227406B2, “Cannabinoid receptor-1 (CB1) monoclonal antibodies” (AMGEN INC., priority 2013, dated 2019).

The conditions of data set [1]: cited from earlier work; for food intake, body weight gain and metabolic parameters: mice; for brain penetration: mouse, in vivo.
The conditions of data set [2]: in vivo; cited from earlier work.
The conditions of data set [3]: multiple clinical trials; cited from earlier work.

As for `Cc1c(C(=O)NN2CCS(=O)(=O)CC2)nn(-c2ccc(Cl)cc2Cl)c1-c1ccc(C#CCCC#N)cc1` [AM6545], in data set [1], the “food intake, body weight gain and metabolic parameters” value is “reduce food intake and body weight gain and improve multiple metabolic parameters”; the brain penetration result is “poor brain penetration”.

In the case of `CC(C)[C@H](N=C(NS(=O)(=O)c1ccc(Cl)cc1)N1C[C@H](c2ccccc2)C(c2ccc(Cl)cc2)=N1)C(N)=O` [JD5037], in data set [1], the “food intake, body weight gain and metabolic parameters” value was “reduce food intake and body weight gain and improve multiple metabolic parameters”; the brain penetration entry is reported as “poor brain penetration”.

On to `Cc1c(C(=O)NN2CCCCC2)nn(-c2ccc(Cl)cc2Cl)c1-c1ccc(Cl)cc1` [rimonabant], for which the “body weight and metabolic parameters” value in data set [2] was “reduce body weight and improve metabolic parameters”. Moreover, the “adverse CNS effects” value in data set [3] is “increased the incidence of anxiety, depression, and suicidal ideation”.

On to `C[C@H](NC(=O)C(C)(C)Oc1ccc(C(F)(F)F)cn1)[C@@H](Cc1ccc(Cl)cc1)c1cccc(C#N)c1` [taranabant], for which the “body weight and metabolic parameters” value in data set [2] was “reduce body weight and improve metabolic parameters”.
